Assay results reported in PubChem BioAssay AID1259321 (Sanford-Burnham Center for Chemical Genomics, 2017).
Where “and” joins values, the source holds several entries; their conditions need not be identical. Identical values can stand only once. Calls of active or inactive are those of the source.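 How the source made its calls: active means half-maximal concentration for changing protein binding to DNA, from the fitted dose curve, below 10 micromolar; inactive means the rest.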

These compounds were tested against Nuclear receptor subfamily 1 group D member 1 (Homo sapiens) (UniProt P20393) (assay: modulators of Rev-erb alpha DNA binding, dose response, biochemical, FITC-DNA, fluorescence polarization (AID 1259321)).
Sequence of Nuclear receptor subfamily 1 group D member 1 (Homo sapiens) (P20393 whole entry, looked up): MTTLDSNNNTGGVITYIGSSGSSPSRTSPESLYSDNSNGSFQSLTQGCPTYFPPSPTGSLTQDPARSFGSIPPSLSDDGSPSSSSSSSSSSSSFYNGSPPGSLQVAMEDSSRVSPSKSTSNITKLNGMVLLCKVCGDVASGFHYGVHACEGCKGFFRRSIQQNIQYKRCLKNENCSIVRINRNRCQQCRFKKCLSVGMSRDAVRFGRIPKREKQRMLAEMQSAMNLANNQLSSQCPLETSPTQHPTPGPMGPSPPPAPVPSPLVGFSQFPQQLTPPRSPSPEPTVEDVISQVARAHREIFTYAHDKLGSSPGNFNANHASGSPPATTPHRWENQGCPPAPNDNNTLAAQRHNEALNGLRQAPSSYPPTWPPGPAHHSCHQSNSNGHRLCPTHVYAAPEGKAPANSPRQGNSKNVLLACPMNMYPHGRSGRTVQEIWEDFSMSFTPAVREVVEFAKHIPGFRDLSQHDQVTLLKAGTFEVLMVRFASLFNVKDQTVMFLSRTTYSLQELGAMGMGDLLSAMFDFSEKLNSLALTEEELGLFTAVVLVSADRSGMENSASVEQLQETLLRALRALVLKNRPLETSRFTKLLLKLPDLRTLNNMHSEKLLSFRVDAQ

| Structure (SMILES) | IC50 |
| --- | --- |
| COc1cccc(C(=O)CSc2nnc(-c3cc(OC)cc(OC)c3)o2)c1 | inactive |
| O=C(Cn1cc(C(F)(F)F)cc(Cl)c1=O)NCc1ccc(Cl)cc1Cl | inactive |
| CC(=O)c1cnc2c(-c3cccc(Br)c3)cnn2c1C | > 40 µM (inactive) |
| COC(=O)c1ccc(NC(=O)c2cc(Cl)ccc2OC)cc1 | inactive |
| CCOc1ccc(S(=O)(=O)Nc2nc3ccccc3nc2-n2ccc(=NC(=O)c3ccccc3C)cc2)cc1 | > 40 µM (inactive) |
| O=C(Nc1nc(=O)c2ccccc2s1)c1ccc(Cl)cc1 | > 40 µM (inactive) |
| CCCCN(C)C1=CC2=CC(=C(C#N)C#N)CCC2CC1 (stereo not given) | > 40 µM (inactive) |
| Cn1c(SCC(=O)NCc2ccc3c(c2)OCO3)ncc(C(=O)Nc2ccc(F)cc2)c1=O | 3.91 µM |
| CCOC(=O)CSc1nc2cc3c(cc2cc1C#N)OCO3 | > 40 µM (inactive) |
| C[n+]1cc(C(=O)N2CCCCC2)ccc1/C=C/c1c[nH]c2ccccc12 | 9.3 µM |
| Cc1nonc1NC(=O)CSc1nc2c(C)cccc2cc1C#N | > 40 µM (inactive) |
| O=C(Nc1ccccc1)c1cc2c(=O)c3ccccc3oc2nc1C(F)(F)F | 6.94 µM |
| COc1ccc(-c2nc(N)ncc2Oc2ccccc2Br)c(O)c1 | inactive |
| CCCCCNC(=O)c1c[nH]c2ccc(S(=O)(=O)N3CCC4(CC3)OCCO4)cc2c1=O | inactive |
| COc1ccc(CC(=O)Nc2ccc(-c3noc(-c4ccccc4OC)n3)cc2)cc1 | 4.17 µM |
| O=C1c2cccc3c(N4CCCCC4)ccc(c23)C(=O)N1CCO | inactive |
| COc1ccccc1C(=O)Nc1nnc(-c2ccc(F)cc2)s1 | 3.13 µM |
| CN(C)c1ccc(N=Nc2ccccc2C(=O)OCC(=O)N2CCCCCC2)cc1 | inactive |
| Fc1ccc(CSc2ncnc3c2oc2ccccc23)cc1 | 6.81 µM |
| COc1ccc(-c2ccc(-c3noc(-c4ccccc4F)n3)c(OC)n2)cc1 | 1.33 µM |
| O=c1c2ccccc2nc2sc(Nc3cccc(Cl)c3)nn12 | 3.87 µM |
| CN(C)/C=C1\C=C2C(=O)c3ccccc3N2C1=O | 0.714 µM |
| Cc1ccc2nsnc2c1NC(=O)c1sc2ccccc2c1Cl | 1.49 µM |
| O=C(Nc1ccc(O)c(-c2nc3ccccc3s2)c1)c1cccs1 | 3.03 µM |
| O=[N+]([O-])c1cc(-c2cnc3ccccc3n2)ccc1Cl | 3.68 µM |
| Cc1ccc2[nH]cc(S(=O)(=O)c3ccc(C)c(C)c3)c(=O)c2c1 | > 40 µM (inactive) |
| CCOC(=O)c1nn(-c2ccc(F)cc2)c(=O)cc1OCC(=O)Nc1cccc(C)c1 | 9.68 µM |

| Structure (SMILES) | IC50 |
| --- | --- |
| CC(=O)c1sc(NC(=O)c2oc3ccc(F)cc3c2C)nc1C | 8.25 µM |
| CCOC(=O)c1sc(NC(=S)NC(=O)C2CCCC2)cc1C | 1.8 µM |
| COc1ccccc1NC(=O)c1sc(NC(=O)c2ccco2)c(C#N)c1C | 3.15 µM |
| CCOC(=O)c1c(-c2ccccc2)csc1NC(=O)/C(C#N)=C/c1ccc(O)c(OC)c1 | 7.23 µM |
| COc1ccc(-n2nc(C(=O)NCC(=O)Nc3cc(Cl)c(OC)cc3OC)c3ccccc3c2=O)cc1 | inactive |
| CS(=O)(=O)Nc1ccc(-c2ccc(/C=C3\SC(N)=NC3=O)o2)cc1 | 8.42 µM |
| Cc1[nH]nc2nc(SCC(=O)NCCC3=CCCCC3)n(-c3ccc(Br)cc3)c(=N)c12 | > 40 µM (inactive) |
| Cc1sc2nc(SCC(=O)NCc3ccco3)n(CCc3ccccc3)c(=O)c2c1C | > 40 µM (inactive) |
| O=C(Nc1nc(=O)c2ccccc2s1)c1ccc(F)cc1 | 1.57 µM |
| CCc1cc2cc3c(cc2nc1SCC(=O)Nc1c[nH]c(=O)[nH]c1=O)OCO3 | 2.22 µM |
| COc1ccc(CC(=O)Nc2cc(C)c3c(=O)oc4ccccc4c3n2)cc1 | 4.42 µM |
| CC1(Cc2ccccc2OC(F)(F)F)C(=O)Nc2ccc(OC(F)(F)F)cc21 (stereo not given) | 4.19 µM |
| COc1ccc(S(=O)(=O)N2CCCCCC2)cc1C(=O)Nc1ccc(C)cn1 | > 40 µM (inactive) |
| Cc1cc(C)c2cc(C#N)c(SCC(=O)Nc3ccc4c(c3)OCO4)nc2c1 | 7.14 µM |
| O=C(CN1CCCCC1)Nc1c2c(nc3ccccc13)N(c1ccccc1)CC2 | 3.26 µM |
| C/C=C(/C(=C/C)c1ccc(O)cc1)c1ccc(O)cc1 | > 40 µM (inactive) |
| CCOC(=O)/C(C#N)=C/C=C1\C=Cc2ccccc2N1CC | > 40 µM (inactive) |
| O=C(NCCc1ccccc1)c1ccc2c(c1)S(=O)(=O)c1cc(Cl)ccc1C2=O | 1.84 µM |
| Cc1cc(C)c(NC(=O)CSc2nc3ncc(Br)cc3[nH]2)c(C)c1 | > 40 µM (inactive) |
| COC(=O)c1cccc(Cn2ccc3ccc(-c4ccc5ccn(C(=O)C6CCCCC6)c5c4)cc32)c1 | 7.14 µM |
| O=C(Nc1ccc2c(c1)C(=O)NC2=O)c1ccc2ncsc2c1 | 2.29 µM |
| COc1cc(OC)cc(-c2c(Sc3ccccc3)c3cc(-c4ccc(OC)c(F)c4)ccc3n2C)c1 | 1.33 µM |
| CCOC(Cn1c(SCc2cc(C(C)=O)ccc2OC)nc2ccccc2c1=O)OCC | 9.39 µM |
| CCN1C(=O)/C(=C/c2ccc(N3CCCC3)cc2)NC1=S | 1.14 µM |
| COc1cc(OC)cc(C(=O)OCc2cc3ccccc3[nH]c2=O)c1 | inactive |
| O=C(c1cccs1)N1C(=O)c2cccc3cccc1c23 | 4.29 µM |
| CCOc1ccc(/C(CC)=N/NC(=O)C2(C)CC2(Br)Br)cc1 (stereo not given) | 7.81 µM |

| Structure (SMILES) | IC50 |
| --- | --- |
| O=C1c2cccc3c(O)ccc(c23)C(=O)N1c1ccc(Cl)cc1 | 2.42 µM |
| CCCCN1C(=O)/C(=C/C=C2/CC(C)(C)CN2C)SC1=S | > 40 µM (inactive) |
| COc1ccc(-c2ccc3sc4ccccc4c(=O)c3c2)cn1 | 3.24 µM |
| COc1ccc(Cl)cc1-c1cc(C(=O)Nc2ccc(F)cc2)[nH]n1 | 3.13 µM |
| CCCCOC(=O)CSc1nc(N)c(C#N)c(-c2ccc(OCC)cc2)c1C#N | inactive |
| O=C(CCSc1nnc2scc(-c3ccccc3)n12)Nc1nc(-c2ccccc2)ns1 | inactive |
| O=C(NCc1ccccc1)C(c1cc2ccccc2o1)n1c(=O)c(-c2ccccc2)nc2ccccc21 (stereo not given) | > 40 µM (inactive) |
| COc1cc(-c2nn3c(COc4ccccc4)nnc3s2)cc(OC)c1OC | 2.99 µM |
| CCc1nnc(NC(=O)CSc2nc3cc4c(cc3cc2C)OCCO4)s1 | 7.62 µM |
| COC(=O)c1ccc(CSc2ncnc3c2oc2ccccc23)o1 | 2.73 µM |
| CCCn1c(N)c(C(=O)CSc2nc(C)nc3sc(C)c(C)c23)c(=O)[nH]c1=O | > 40 µM (inactive) |
| CCN1C(=O)/C(=C\N2CCN(c3cccc(Cl)c3)CC2)SC1=S | 8.83 µM |
| N#Cc1c(N)nc(Sc2ccc(Cl)cc2)c(C#N)c1-c1ccccc1Cl | 6.32 µM |
| COc1ccc2c(c1)c(=O)oc1cc(OCC(=O)NC3CC3)ccc12 | 6.09 µM |
| Cc1nc2nc(SCC(=O)c3ccccc3)[nH]c2cc1Br | > 40 µM (inactive) |
| c1ccc2nc(-c3ccc(N4CCOCC4)cc3)ccc2c1 | > 40 µM (inactive) |
| O=C(OCCN1C(=O)c2cccc3c(N4CCOCC4)ccc(c23)C1=O)c1ccc(Cl)cc1 | 5.07 µM |
| Cc1ccc2c3c(c(SCC(=O)Nc4nonc4C)nc2c1)CCCC3 | > 40 µM (inactive) |
| CCOC(=O)COc1c(Cl)cc(C2NC(=S)NC(c3ccccc3)=C2C(C)=O)cc1OCC (stereo not given) | 1.16 µM |
| COc1ccc(-n2c(SCC(=O)Nc3cc(C)on3)nc3c([nH]c4ccccc43)c2=O)cc1 | inactive |
| Cc1cc2cc3c(=O)[nH]c(=O)[nH]c3nc2cc1C | 3.34 µM |
| Cc1coc2cc3oc(=O)c(Cc4ccccc4)c(C)c3cc12 | inactive |
| Cc1oc2cc3oc(=O)c4c(c3cc2c1C)CCC4 | > 40 µM (inactive) |
| COc1ccc(NC(=O)CSc2nc3ccccc3c(=O)n2-c2ccc3c(c2)OCO3)c(OC)c1 | > 40 µM (inactive) |
| COc1cc(/C=C(\C#N)c2nc3ccccc3o2)ccc1O | 2.91 µM |
| N#Cc1c(N)nc(SCC(=O)C23CC4CC(CC(C4)C2)C3)c(C#N)c1-c1ccc(Cl)cc1 | > 40 µM (inactive) |
| Cc1sc2nc(Cc3ccccc3)[nH]c(=O)c2c1-c1ccccc1 | > 40 µM (inactive) |

| Structure (SMILES) | IC50 |
| --- | --- |
| Cc1cccc2cc(C(c3nnnn3Cc3ccccc3)N3CCN(c4ccccc4)CC3)c(=O)[nH]c12 (stereo not given) | 7.94 µM |
| O=[N+]([O-])c1ccc(O)c(-c2cc(C(F)(F)F)nc(-c3ccccc3)n2)c1 | > 40 µM (inactive) |
| CCc1cc2cc3c(cc2nc1SCC(=O)Nc1nnc(C)s1)OCCO3 | 5.32 µM |
| C=CCOc1ccc(/C(O)=C2\C(=O)C(=O)N(CCN(C)C)C2c2cccs2)cc1 (stereo not given) | 7.38 µM |
| COC(=O)c1cccc(Cn2ccc3ccc(-c4ccc5ccn(C(=O)c6cccc(OC)c6)c5c4)cc32)c1 | > 40 µM (inactive) |
| Brc1ccc(Sc2cnc3ccccc3n2)cc1 | inactive |
| Cc1nn2c(N)c(C#N)cnc2c1-c1ccc(Cl)cc1 | 6.12 µM |
| CCc1nc(SCC(=O)Nc2ccc3c(c2)OCCO3)c2oc3ccccc3c2n1 | 1.3 µM |
| Cc1cccc(-c2nnn3c2nc(NCCc2ccc(S(N)(=O)=O)cc2)c2ccccc23)c1 | > 40 µM (inactive) |
| Cc1cnc(NC(=O)c2cc3c(C)nn(-c4ccccc4)c3s2)s1 | 3.83 µM |
| Cn1nnnc1-c1cc(Br)ccc1NC(=O)c1ccccc1 | inactive |
| Cn1c(SCC(=O)Nc2cccc(F)c2)nnc1-c1cc2ccccc2o1 | inactive |
| CCC(=O)c1ccc(OCC(=O)Nc2ccccc2C(=O)NC2CC2)cc1 | 4.7 µM |
| CC[n+]1ccc(/C=C/c2c[nH]c3ccccc23)cc1 | inactive |
| C[n+]1c2cc(N)ccc2cc2ccc(N)cc21 | 2.68 µM and 8.02 µM |
| CN1C(=O)c2cc(NC(=O)Nc3ccccc3F)ccc2OC[C@H]2O[C@@H](CC(=O)NCc3ccc(-c4ccccc4)cc3)CC[C@@H]21 | 3.55 µM |
| COc1ccc(-n2nc3c(N4CCC(C(=O)NCc5ccccc5)CC4)nnc(C)c3c2C)cc1 | > 40 µM (inactive) |
| COc1ccc(OC)c(-c2csc(NC(=O)c3ccc4c(c3)OCO4)n2)c1 | 3.24 µM |
| COc1ccc2[nH]c(C(=O)Nc3ccc(F)cc3Br)cc2c1 | > 40 µM (inactive) |
| CCCSc1nc(SCC(=O)NCc2ccccc2)c2c3c(sc2n1)COC(C)(CC)C3 (stereo not given) | > 40 µM (inactive) |
| COc1ccc(-c2oc3ccccc3c(=O)c2OC(=O)c2ccc(C)cc2)cc1 | inactive |
| NS(=O)(=O)c1ccc(CCn2c(=S)[nH]c3ccc(F)cc3c2=O)cc1 | > 40 µM (inactive) |
| C[n+]1ccc(/C=C/c2c[nH]c3ccc(F)cc23)cc1 | > 40 µM (inactive) |
| COc1ccc2cc(C#N)c(Nc3cccc(F)c3)nc2c1 | 7.69 µM |
